Results taken from the NIST ThermoML archive (doi:10.1021/je800579j).

Assay: xn = mol fraction of the nth substance listed
Settings: Liquid, Pycnometric method

Cc1ccccc1C [1,2-dimethylbenzene] + C1COCCO1
mass density [kg/m3]
Settings | 288.15 K | 293.15 K | 298.15 K | 303.15 K | 308.15 K | 313.15 K | 318.15 K
x2 = 0 | 884.09 | 879.83 | 875.57 | 871.31 | 867.05 | 862.79 | 858.53
x2 = 0.0672 | 891.2 | 886.85 | 882.5 | 878.15 | 873.8 | 869.45 | 865.1
x2 = 0.1391 | 899.18 | 894.73 | 890.29 | 885.85 | 881.41 | 876.97 | 872.53
x2 = 0.2103 | 907.48 | 902.95 | 898.42 | 893.89 | 889.36 | 884.83 | 880.3
x2 = 0.2853 | 916.69 | 912.06 | 907.43 | 902.8 | 898.17 | 893.55 | 888.93
x2 = 0.3543 | 925.67 | 920.95 | 916.23 | 911.51 | 906.79 | 902.08 | 897.37
x2 = 0.4293 | 936 | 931.18 | 926.36 | 921.55 | 916.74 | 911.93 | 907.12
x2 = 0.5092 | 947.69 | 942.77 | 937.85 | 932.93 | 928.02 | 923.11 | 918.2
x2 = 0.581 | 958.89 | 953.86 | 948.83 | 943.81 | 938.79 | 933.77 | 928.75
x2 = 0.6518 | 970.57 | 965.44 | 960.31 | 955.19 | 950.07 | 944.95 | 939.83
x2 = 0.7248 | 983.38 | 978.14 | 972.9 | 967.66 | 962.43 | 957.2 | 951.97
x2 = 0.7888 | 995.25 | 989.91 | 984.57 | 979.23 | 973.9 | 968.57 | 963.24
x2 = 0.8595 | 1009.11 | 1003.66 | 998.21 | 992.77 | 987.33 | 981.89 | 976.45
x2 = 0.9298 | 1023.75 | 1018.19 | 1012.63 | 1007.08 | 1001.53 | 995.99 | 990.45
